Laboratory results published in US8252807B2, “Methods of inhibiting the interaction between S100 and the receptor for advanced glycation end-products” (Board of Regents, The University of Texas System, priority 2007, dated 2012).

System: BxPC-3 cells
Assay: BxPC-3 cell growth (MTS)
Assay type: cell-based
Details: 48 hours; for BxPC-3 basal cell proliferation, mean: 0 μM mean=1.2
Protocol: BxPC-3 cells were plated at 1.0×10^3 cells/well and treated with 0 μM, 1 μM, 10 μM, and 100 μM of cromolyn, and cell proliferation was analyzed after 48 hours. Means and 95% confidence intervals of three independent experiments performed in triplicate are shown. *, P=0.002; †, P<0.001 versus control. Growth of Panc-1 and BxPC3 pancreatic adenocarcinoma cells was analyzed using MTS reagent (Promega, Madison, Wis.) according to the manufacturer's directions. Purified S100P (100 nM final concentration) with or without cromolyn (100 μM final concentration) was added to Panc-1 cells. Only cromolyn (0-100 μM) was added to BxPC-3 cells, which express endogenous S100P. For both cell models, 1.0×10^3 cells/well were plated in 96-well culture dishes. Cells were treated with S100P, PDGF, or cromolyn, or a combination, followed immediately by treatment with either S100P or PDGF. MTS (20 μL per well) was added to cells at various times, and the mixture was incubated for 1 hour at 37° C. Samples were then read at 490 nm (as O.D. units) on a uQuant-Microplate Spectrophotometer (Bio-Tek Services Inc., Richmond, Va.). The assay was performed three times in triplicate.

In the case of `O=C(O)c1cc(=O)c2c(OCC(O)COc3cccc4oc(C(=O)O)cc(=O)c34)cccc2o1` [cromolyn, disodium 1,3-bis[(2′-carboxylatochromon-5′-yl)oxy]-2-hydroxypropane], the “BxPC-3 cell proliferation, difference versus 0 μM” value (cromolyn 10 μM) is reported as 0.5 MTS units, the “BxPC-3 basal cell proliferation, mean” value (cromolyn 10 μM) is reported as 0.7 MTS units and the “BxPC-3 cell proliferation, difference versus 0 μM” value (cromolyn 100 μM) is reported as 0.6 MTS units. The “BxPC-3 basal cell proliferation, mean” value (cromolyn 100 μM) was 0.6 MTS units.
